{
  "source": "patent US6506576B2",
  "about": "(priority 2001, dated 2003)",
  "key": {"cerebellar granule cells [1]": {"test_system": "cerebellar granule cells", "conditions": "for concentration at which maximal effects on granule cell viability/lysis were observed / concentration at which significant effects on granule cell viability/lysis were initially detected: MTS reduction and LDH release, independent of culture condition (GCSF or NB-B27)", "protocol": "Viability of the cerebellar granule cell culture was assessed using CellTiter 96® AQueous One Solution Cell Proliferation reagent (Promega, G3580). This colorimetric assay employs, 3-(4,5-dimethylthiazol-2-yl)-5-(3-carboxymethoxyphenyl)-2-(4-sulfophenyl)-2H-tetrazolium (MTS) and the electron coupling reagent, phenazine ethosulfate (PES). […] Briefly, prior to each MTS assay, 100 μl of media was removed from each well, transferred to new 96-well plate for subsequent LDH release analysis. To each cell containing well, 20 μl of MTS tetrazolium reagent was added to the remaining media (100 μl). Culture plates were incubated in the humidified incubator at 37° C. and in 5% CO2 for 2 hours. Following incubation the quantity of formazan product present was determined by measuring the absorbance at 490 nm using a VERSAmax® microplate reader and SOFTmax PRO software (Molecular Devices).\n(§1) Granule cell cultures were seeded at an initial density of 1×10^5 cells per well and maintained in GCSF culture media for 7 day in vitro prior to toxicant exposure. On the day of treatment, L-Glutamate, tert-butyl-hydroperoxide (TBHP), hydrogen peroxide (H2O2), ionomycin (Sigma), and MK-801 (Calbiochem, San Diego) were prepared at required concentration in the appropriate media. Cultures were exposed to toxicants for 24 hours prior to viability analysis. Cultures receiving MK-801 were pretreated for 10 minutes prior to addition of L-glutamate, and negative control cultures were treated with fresh media. For dose-dependence of oxidative-induced injury H2O2 and TBHP stock solutions were serially diluted in media to 100× concentrations immediately before each experiment. The concentration of the H2O2 stock solution was determined spectrophotometrically before each experiment based on its absorbance using the equation: C=(Ab240/ε)×DF; where C is the concentration of H2O2 (mM), Ab240 is absorbance at 240 nm, ε is the extinction coefficient (0.0394 mM^−1 cm^−1), DF is the dilution factor, and the path-length of the spectrophotometer is 1 cm. Comparative analysis of granule cell viability/lyses in GCSF and NB-B27 was assessed using the MTS reduction and LDH release assays as described above."}, "cerebellar granule cells [2]": {"test_system": "cerebellar granule cells", "experiment": "LDH release assay of granule cell death after toxicant exposure", "type": "cell-based, rat", "protocol": "The lactate dehydrogenase (LDH) released into the media was determined using Cyto Tox96® non-radioactive cytotoxicity assay (Promega). In this calorimetric assay, LDH converts lactate and nicotinamide adenine dinucleotide (NAD^+) to pyruvate and NADH, respectively. This initial reaction is coupled to a second reaction where diaphorase converts iodo-nitro-tetrazolium salt and NADH to a red colored formazan compound and NAD^+ respectively. Briefly, 50 μl of assay buffer was added to each 100 μl sample of media removed from each well prior to MTS analysis. Samples were then incubated in the dark for 30 minutes at room temperature, and then 50 μl of a stop solution (1M acetic acid) was added into each well and the absorbance at 490 nm was measured as above. Positive control samples of bovine heart LDH (800 units/ml; lot 11455502, Promega) were serially diluted into a final volume of 200 μl and assayed as described above.\nas §1"}, "[3]": {"test_system": "non-neuronal cells in cerebellar cultures", "experiment": "Inhibition of non-neuronal cell proliferation in primary cerebellar cultures (visual inspection, staining)", "type": "cell-based, rat", "protocol": "Based on the calculated cell numbers, cerebellar cells were serially diluted in an appropriate volume of culture media and seeded into flat-bottom 96-well tissue culture plates pre-coated with poly-L-lysine (Becton Dickinson, Bedford, Mass.). The numbers of cerebellar cells seeded ranged from 6,250 to 400,000 cells per well (0.32 cm^2) in a final volume of 200 μl. Cultures were maintained in a humidified incubator in 5% CO2 at 37° C.\nAfter 7-30 day in vitro, cultures were washed 3 times with phosphate buffered saline (PBS) and fixed for 20-30 minutes with 4% paraformaldehyde in 0.1M sodium phosphate buffer (pH 7.4; PB). Following fixation, cells were washed 3 times with PBS, and either stained with 1% methylene blue (Sigma) in deionized water for 5 minutes and destained with deionized water or permeablized for immunostaining with 0.2% Triton X-100 in PBS. Permeablized cells were washed 3 times with PBS, incubated for 1 hour in 5% normal horse serum in PB and then incubated overnight at 4° C. with a glial fibrillary acidic protein (GFAP) antiserum (1:5000 dilution; Dako, Carpintea, Calif.). Following incubation with primary antiserum, cells were extensively washed with PBS plus 0.1% Tween-20 and immunoreactivity was visualized with NiCl/3,3′-diaminobenzidine (DAB) using the avidin-biotin-complex (ABC) method (Vector Elite-universal; Vector Laboratories, Burlingame, Calif.). […]"}, "[4]": {"conditions": "400 μM H2O2, 24 hours, 7 DIV cultures in GCSF"}, "[5]": {"conditions": "400 μM H2O2, 24 hours, 7 DIV cultures in NB-B27"}, "[6]": {"conditions": "125 μM TBHP, 24 hours, 7 DIV cultures in GCSF"}, "[7]": {"conditions": "125 μM TBHP, 24 hours, 7 DIV cultures in NB-B27"}},
  "note": "Read-outs that look alike come from different tables or passages of the source.",
  "data": [
    {"compound": "OO", "note": "[H2O2, hydrogen peroxide]", "values": [
      {"measurement": "neuronal cell death (MTS reduction)", "setting": "cerebellar granule cells [1]; 100 μM H2O2, 24 hours, GCSF, single experiment n=8", "value": "Statistically significant levels of neuronal cell death"},
      {"measurement": "MTS-reduction", "setting": "cerebellar granule cells [1]; [4]", "value": "41.5±1.0 % of control"},
      {"measurement": "MTS-reduction", "setting": "cerebellar granule cells [1]; [5]", "value": "47±1.2 % of control"},
      {"measurement": "concentration at which maximal effects on granule cell viability/lysis were observed", "setting": "cerebellar granule cells [1]; 24 hours", "value": 400, "unit": "µM"},
      {"measurement": "concentration at which significant effects on granule cell viability/lysis were initially detected", "setting": "cerebellar granule cells [1]; 24 hours", "value": 200, "unit": "µM"},
      {"measurement": "LDH-release", "setting": "cerebellar granule cells [2]; [4]", "value": "136.9±2.8 % of control"},
      {"measurement": "LDH-release", "setting": "cerebellar granule cells [2]; [5]", "value": "125±5.0 % of control"}
    ]},
    {"compound": "N[C@@H](CCC(=O)O)C(=O)O", "note": "[L-glutamate, L-Glutamate]", "values": [
      {"measurement": "granule cell viability (MTS reduction)", "setting": "cerebellar granule cells [1]; 500 μM L-glutamate, 24 hours, GCSF, representative single experiment", "value": "56.8±2 % of control cultures"}
    ]},
    {"compound": "C[C@]12N[C@H](Cc3ccccc31)c1ccccc12", "note": "[MK-801]", "values": [
      {"measurement": "viability of cultures pretreated with antagonist prior to L-glutamate exposure (MTS reduction)", "setting": "cerebellar granule cells [1]; 10 μM MK-801 pretreatment 10 minutes, then 500 μM L-glutamate 24 hours, GCSF", "value": "not significantly different from the mock-treated control cultures"}
    ]},
    {"compound": "CC(C)(C)OO", "note": "[TBHP, tert-butyl-hydroperoxide]", "values": [
      {"measurement": "MTS-reduction", "setting": "cerebellar granule cells [1]; [6]", "value": "37.9±0.8 % of control"},
      {"measurement": "MTS-reduction", "setting": "cerebellar granule cells [1]; [7]", "value": "43.7±1.9 % of control"},
      {"measurement": "concentration at which maximal effects on granule cell viability/lysis were observed", "setting": "cerebellar granule cells [1]; 24 hours", "value": 125, "unit": "µM"},
      {"measurement": "concentration at which significant effects on granule cell viability/lysis were initially detected", "setting": "cerebellar granule cells [1]; 24 hours", "value": 62.5, "unit": "µM"},
      {"measurement": "LDH-release", "setting": "cerebellar granule cells [2]; [6]", "value": "125.4±1.4 % of control"},
      {"measurement": "LDH-release", "setting": "cerebellar granule cells [2]; [7]", "value": "122.7±5.6 % of control"}
    ]},
    {"compound": "C[C@H](CCC(=O)O)C[C@H](C)C[C@H](C)C(=O)/C=C(\\O)[C@H](C)C[C@H](C)C/C=C/[C@@H](C)[C@@H](O)[C@@H](C)[C@@H](O)C[C@@H]1CC[C@@](C)([C@H]2CC[C@@](C)([C@@H](C)O)O2)O1", "note": "[ionomycin]", "values": [
      {"measurement": "average maximal decrease in viability (MTS reduction)", "setting": "cerebellar granule cells [1]; ionomycin treatment (10 nM per FIG. 6 legend), GCSF", "value": "56±5 % of control"}
    ]},
    {"compound": "cytosine β-D-arabinofuranoside [AraC]", "values": [
      {"measurement": "non-neuronal cell types in cultures", "setting": "[3]; 10 μM AraC added after 24 hour in vitro, NB-B27 or GCSF", "value": "less than 5%"},
      {"measurement": "cells with morphological phenotype of small cerebellar granule cell neurons", "setting": "[3]; 10 μM AraC added after 24 hours, 96-well plates, visual inspection", "value": "> 90", "unit": "%"}
    ]}
  ]
}
